Marks after values point to notes of the source that are not given here. Non-standard residues stand in square brackets, D forms with d. Residues, ends and D or L forms follow the SMILES beside them. *: point of attachment. Butyryl = CCCC(=O)*
Assays:
horse erythrocytes = conditions: TRIS buffer pH 7.2, 1 h, 37°C, absorbance 540 nm, relative to melittin 100 μM, ± confidence interval (α = 0.05)
Summary of the method: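 Horse erythrocytes washed in 10 mM Tris, 150 mM NaCl, pH 7.2 were mixed 1:1 with compound solutions at 750, 500, 300 and 100 μM and shaken 1 h at 37°C. Hemoglobin release read at 540 nm in supernatant; % hemolysis relative to buffer and melittin control.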

[1] = test system: tomato plants cv. Rio Grande, defense-related genes; test: Induction of defense gene expression in tomato plants (RT-qPCR); assay type: in vivo; conditions: peptide sprayed at 125 μM, leaves 24 h after application, ΔΔCT vs actin and nontreated control; for PR1 expression, fold induction: above 2 = overexpression
Experimental: The capacity to induce the expression of genes related to defense response in tomato plants was evaluated for the peptide conjugates flg15-BP387, flg15-BP475, and PIP1-BP475 and the monomers flg15 and PIP1 (Table 2).
Seeds of tomato cv. Rio Grande plants were sown in hydroponic seed plugs (rockwool) and germinated and grown in an environmentally controlled greenhouse at 25 ± 2°C (day) and 18 ± 2°C (night), with a minimum relative humidity of 60% and with a photoperiod of 16 h light and 8 h dark. Then, 2-week-old seedlings (two cotyledons) were transplanted into rockwool plugs (7.5 × 7.5 × 6.5 cm; Gordan Iberica, Spain). Tomato plants were maintained until use under the same environmental conditions.
The 2-week-old tomato plants cv. Rio Grande were sprayed with aqueous solutions of the peptides flg15-BP387, flg15-BP475, PIP1-BP475, flg15, and PIP1 at 125 μM until the runoff point. […] Water-sprayed plants were used as nontreated controls (NTC). The experimental design consisted of three replicates of three plants per treatment. Leaf samples were collected 24 h after product application and processed to extract RNA for reverse transcriptase quantitative PCR (RT-qPCR) assays. Plant material was roughly ground in liquid nitrogen and was transferred into tubes with two glass beads. Afterward, the frozen samples were finely ground using the TissueLyser II system (Qiagen, Hilden, Germany) at a frequency of 30 Hz for 1 min. Total RNA was extracted from leaves (100 mg) using PureLink plant RNA reagent (Invitrogen, Life Technologies) according to the manufacturer’s manual. The RNA was solubilized in RNase-free water (Ambion, Thermo Fisher Scientific, USA) and was routinely subjected to DNase treatment (Ambion Turbo DNA-free; Invitrogen Life Technologies, Carlsbad, CA, USA) to remove any contaminant DNA. In each step, the RNA was quantified using a NanoDrop ND-1000 spectrophotometer (Nanodrop Technologies, Wilmington, DE, USA). First-strand cDNA was generated from leaf RNA using reverse transcriptase (high-capacity cDNA reverse transcription kit; Applied Biosystems, Foster City, CA, USA) according to the manufacturer’s manual.
To test gene defense induction in the treated tomato plants, a quantitative PCR (qPCR) assay was performed. qPCR was carried out in a fluorometric thermal cycler (7500 Fast real-time PCR system; Applied Biosystems, USA) by using a Mix SYBR green PCR master mix (Applied Biosystems, Foster City, CA, USA) as previously described ([49]). Melting curve analysis was performed after each amplification to verify amplification specificity. A constitutive gene (actin) was used as a reference control ([52]), and the following genes implicated in plant defense response were analyzed using the previously described primers: pathogenesis-related protein-1 (PR1) and chitinase A (PR3) ([81]), subtilisin-like protease P69G (PR7), peroxidase 1 (PR9), WRKY3 transcription factor (WRKY3), hairpin-induced protein-like (Harp), blue-copper-binding protein gene (BCB) and ethylene responsive transcription factor (ERF) ([71]), and basic β-1,3-endoglucanase (GluB) ([52]). The primer concentration was 100 nM for all the genes except for the actin gene, for which the concentration was 300 nM. A calibration curve was prepared by cloning the corresponding target sequence in the pSpark cloning vector (Canvax, Córdoba, Spain), which was used to transform Escherichia coli DH5α. Plasmids were purified (Qiagen Iberia, S.L., Madrid, Spain), plasmid copies were quantified, and decimal dilutions were prepared.

Compound	Percent hemolysis at 50 μM (horse erythrocytes)	Percent hemolysis at 150 μM (horse erythrocytes)	Percent hemolysis at 250 μM (horse erythrocytes)	Percent hemolysis at 375 μM (horse erythrocytes)	BCB expression, fold induction [1]	ERF expression, fold induction [1]	GluB expression, fold induction [1]	Harp expression, fold induction [1]	PR3 expression, fold induction [1]	PR7 expression, fold induction [1]	PR9 expression, fold induction [1]	WRKY3 expression, fold induction [1]	PR1 expression, fold induction [1]
CCCC(=O)NCCCC[C@H](NC(=O)[C@H](CCCCN)NC(=O)[C@H](CC(C)C)NC(=O)[C@@H](NC(=O)[C@H](CCCCN)NC(=O)[C@H](CCCCN)NC(=O)[C@@H](Cc1ccccc1)NC(=O)[C@H](CC(C)C)NC(=O)[C@H](CCCCN)NC(=O)[C@H](CCCCN)NC(=O)[C@H](C)NC(=O)[C@@H](NC(=O)[C@H](CCC(N)=O)NC(=O)[C@H](CC(C)C)NC(=O)CNC(=O)[C@H](C)NC(=O)[C@H](C)NC(=O)[C@H](CC(=O)O)NC(=O)[C@H](CC(=O)O)NC(=O)[C@H](CCCCN)NC(=O)[C@H](C)NC(=O)[C@H](CO)NC(=O)[C@H](CC(N)=O)NC(=O)[C@@H](NC(=O)[C@H](CCCNC(=N)N)NC(C)=O)[C@@H](C)CC)[C@@H](C)CC)[C@@H](C)CC)C(=O)N[C@@H](CC(C)C)C(N)=O [flg15-BP475] (Ac-RINSAKDDAAGLQIAKKL[dF]KKILKK(Butyryl)L-NH2)	7 ± 0.6%	28 ± 2.3%	43 ± 2.7%	46 ± 3.6%	5.84 ± 1.38^d fold	0.67 ± 0.15^d fold	4.31 ± 0.82^d fold	3.68 ± 0.91^d fold	10.96 ± 1.85^d fold	5.82 ± 0.78^d fold	3.83 ± 0.25^d fold	1.16 ± 0.26 fold	2.02 ± 0.07^d fold
RINSAKDDAAGLQIA-OH [flg15, plant defense elicitor peptide, 15 amino acids of the N-terminal conserved domain of bacterial flagellin; monomer]	0 ± 0%	0 ± 0%	0 ± 0%	0 ± 0%	8.14 ± 2.48^d fold	1.09 ± 0.44 fold	6.05 ± 2.40^d fold	4.28 ± 1.49^d fold	17.68 ± 4.18^d fold	9.26 ± 2.06^d fold	6.24 ± 2.25^d fold	1.41 ± 0.84 fold	8.32 ± 3.35^d fold
YGIHTH-NH2 [PIP1, plant defense elicitor peptide identified through combinatorial chemistry; monomer]	4 ± 0.8%	0.5 ± 0.3%	0 ± 2%	1 ± 0.1%	1.99 ± 0.40^d fold	0.58 ± 0.11^d fold	0.96 ± 0.32 fold	1.97 ± 0.45^d fold	3.59 ± 1.35^d fold	1.13 ± 0.26 fold	1.23 ± 0.18 fold	0.94 ± 0.35 fold	1.00 ± 0.39 fold
CCCC(=O)NCCCC[C@H](NC(=O)[C@H](CCCCN)NC(=O)[C@H](CC(C)C)NC(=O)[C@@H](NC(=O)[C@H](CCCCN)NC(=O)[C@H](CCCCN)NC(=O)[C@@H](Cc1ccccc1)NC(=O)[C@H](CC(C)C)NC(=O)[C@H](CCCCN)NC(=O)[C@H](CCCCN)NC(=O)[C@H](Cc1c[nH]cn1)NC(=O)[C@@H](NC(=O)[C@H](Cc1c[nH]cn1)NC(=O)[C@@H](NC(=O)CNC(=O)[C@H](Cc1ccc(O)cc1)NC(C)=O)[C@@H](C)CC)[C@@H](C)O)[C@@H](C)CC)C(=O)N[C@@H](CC(C)C)C(N)=O [PIP1-BP475] (Ac-YGIHTHKKL[dF]KKILKK(Butyryl)L-NH2)	4 ± 0.4%	11 ± 0.5%	18 ± 0.1%	24 ± 0.5%	2.07 ± 0.11^d fold	0.81 ± 0.30 fold	0.80 ± 0.07 fold	2.25 ± 0.12^d fold	7.36 ± 1.05^d fold	1.29 ± 0.19^d fold	1.99 ± 0.11^d fold	1.46 ± 0.11 fold	0.64 ± 0.36 fold

— article PMC9238401, “Peptide Conjugates Derived from flg15, Pep13, and PIP1 That Are Active against Plant-Pathogenic Bacteria and Trigger Plant Defense Responses” (Applied and Environmental Microbiology, 2022)
